Laboratory results taken from patent US7033618B2, “Methods of administering gaultherin-containing compositions” (Rutgers University, The State University of New Jersey, priority 1999, dated 2006).

Experiments:
[1] = Rat hind paw inflammatory (edema and hyperalgesia) model, Freund's adjuvant; format: in vivo, Sprague-Dawley rats
Procedure: Wintergreen-derived gaultherin-containing extract was administered by per-oral gavage at human dose equivalents of 200 mg and 400 mg per day and Naproxen was administered at a dose of 440 mg per day. Male Sprague-Dawley rats (300–350 grams) were treated for 5 days by gavage. Inflammation (edema and hyperalgesia) was induced 3 days prior to treatment through intraplantar injection of Freund's adjuvant (containing 170 μg Mycobacterium butyricum). Edema was determined by physical measurements of paw thickness and ankle width. Pain tolerance (i.e., pain reduction) was mechanically assessed via digital Von Frey determinations using a series of measurements at 6 locations on the surface of a paw. [Ren et al., ILAR Journal, 40(3):1–12 (1999), Kayser et al., Pain, 28:99–107 (1987)] Measurement terminated at the point of paw withdrawal, auditable indication of discomfort, or animal shuddering. Measurements were performed on left and right paws.

[2] = test system: platelet aggregation in vivo (bleeding time in mouse tail tips); assay: In vivo bleeding time in mouse tail tips; design: species or system mice; conditions: oral, pretreatment time 1 h, Aspirin 100 mg/kg
Procedure: Wintergreen-derived gaultherin containing extracts were also shown to inhibit platelet aggregation in vivo. […] The gaultherin-containing extract prolonged mouse bleeding times assessed at 1, 3, and 6 hours after treatment. Therefore, gaultherin-containing extracts prevent platelet aggregation in vitro and in vivo. In vivo assay: The gaultherin-containing extract was mixed with vehicle (2% Tween 80/distilled water) and orally administered to 5 ICR […] (22+2 g) at the doses given in Table V. After 1, 3, or 6 hours of treatment, the mice were suspended in holders and 0.5 mm of the tip of each tail was transected and immersed in a test tube containing saline at 37° C. The bleeding time is defined as the time required for the bleeding to cease for a period of greater than 15 seconds. Prolongation of the bleeding time over that of control animals was then calculated. Aspirin was used as the standard to ensure that the assay was performing as expected.

[3] = Gastric irritation in fasted rats; format: in vivo, Wistar rats; conditions: oral gavage, overnight-fasted rats, 4 h after treatment, extract 5000 mg/kg; for Gastric irritation Total Score: total for three rats (0-4 each), aspirin 150 mg/kg (equal total salicylate)
Procedure: Wintergreen-derived, gaultherin-containing extract and aspirin were given by oral gavage to overnight-fasted Wistar rats (200+/−20 g). The 5000 mg/kg dose of wintergreen extract and the 150 mg/kg dose of aspirin used in the experiment contain equal total amounts of salicylate. Four hours after treatment, the stomach lining was harvested and scored for gastric irritation [Guth et al., Gastroenterology, 76: 88–93 (1979)]. A score of zero was given for no sign of hyperaemia (excess blood or engorgement with blood) or bleeding. A score of one was given when hyperaemia was evident. A score of two was given when some spot bleeding was observed. A score of three was assigned for any hyperaemia and spot bleeding and a score of four for hyperaemia and spot bleeding occurred over the entire stomach. The total aspirin score for three rats was nine as all three rats experienced some hyperaemia and spot bleeding. The total wintergreen-derived, gaultherin-containing extract score was two because only two of the three rats were noted to have some hyperaemia. Based on these responses, the gastric irritation caused by wintergreen extract was substantially less (approximately five times lower) than that caused by aspirin.

**Q.** For `COC(=O)c1ccccc1O[C@@H]1O[C@H](CO[C@@H]2OC[C@@H](O)[C@H](O)[C@H]2O)[C@@H](O)[C@H](O)[C@H]1O` [Gaultherin, gaultherin], which Edema reduction ([1]; 200 mg/day (human dose equivalent) for 5 days, per-oral gavage) is on record?
**A.** Its Edema reduction is 12.2%.

**Q.** And the Edema reduction ([1]; 400 mg/day (human dose equivalent) for 5 days, per-oral gavage)?
**A.** The Edema reduction was 16.9%.

**Q.** And the “improvement in pain tolerance (digital Von Frey)” value ([1]; human dose equivalent of 200 mg per day, 5 days, gavage)?
**A.** Its value is 6.7%.

**Q.** And the “improvement in pain tolerance (digital Von Frey)” value ([1]; human dose equivalent of 400 mg per day, 5 days, gavage)?
**A.** The value was 9.9%.

**Q.** For `CC(=O)Oc1ccccc1C(=O)O` [Aspirin, acetylsalicylic acid], which “Avg. Bleed Time, Exp. 2” value [2] is on record?
**A.** The value was 114 s.

**Q.** What about the “Avg. Bleed Time, Exp. 1” value ([2]; W. Extract 5000 mg/kg) of the same compound?
**A.** Its value is 120 s.

**Q.** What about the “Prolongation of bleeding time, Exp. 1” value ([2]; W. Extract 5000 mg/kg, over control animals) of the same compound?
**A.** The value was 100%.

**Q.** And the “Prolongation of bleeding time, Exp. 2” value ([2]; over control animals)?
**A.** Its value is 73%.

**Q.** And the “Gastric irritation Total Score” value [3]?
**A.** The value was 9.

**Q.** And the “Gastric irritation Total Score” value ([3]; listed as aspirin)?
**A.** Its value is “nine”.

**Q.** And the “Gastric irritation Response” value ([3]; aspirin 150 mg/kg)?
**A.** Its value is 100%.

**Q.** For `COc1ccc2cc([C@H](C)C(=O)O)ccc2c1` [Naproxen], which “anti-inflammatory and analgesic effect” value ([1]; 440 mg per day, 5 days, gavage) is on record?
**A.** The value was “predictable anti-inflammatory and analgesic effect”.

**Q.** And the Edema reduction ([1]; 440 mg/day for 5 days, gavage)?
**A.** The Edema reduction was 28%.
